One experiment relates to LUHMES neurons. Kind of experiment: Morphological inspection and counts of viable cells. Format: cell-based, human. Conditions: co-treatment with PERK activator. As for the experimental part: Nunc™ Nunclon™ Delta 6-well (for protein and mRNA) or 48-well (for cell assays) plates (Thermo Fisher Scientific, Waltham, Mass., USA) were coated with 100 μg/ml poly-L-lysine (Sigma-Aldrich, St. Louis, Mo., USA) and 5 μg/ml fibronectin (Sigma-Aldrich). LUHMES (Lund Human Mesencephalic) cells, derived from human embryonic ventral mesencephalic cells by conditional immortalization (Tet-off v-myc over-expression) were seeded out in a concentration of 130,000 cells/cm^2 to achieve a confluence of 50%. They were then differentiated for 8 days in a medium of DMEM/F12 (Sigma-Aldrich), 1 μg/ml tetracycline, […] and 490 μg/ml dbcAMP into post-mitotic neurons with a dopaminergic phenotype (Lotharius et al. 2005).
For all experiments with annonacin, the medium was replaced during the intoxication period with new medium containing glucose levels reduced to 250 μM, i.e. the physiological concentration in the human brain.
The protection by the PERK activator against annonacin and 4R-tau protein overexpression was also evident on morphological inspection of the cells. […] Lentiviral 4R-tau overexpression had similar effects. […] Cell counts of viable cells with intact nuclear and somatic morphology were counted in randomly selected 1300×1000 sized areas in 4 biological replicates each, confirming the protective effects of Pa.

For experiment [1], the system named is P301S tau transgenic mice. The experiment is described as follows: Rotarod test. Type of experiment: in vivo, mouse. The following applies: 2 mg/kg i.p. once daily for 6 weeks, 23 weeks of age, vs saline. As for the experimental part:
All animal work was conducted either on CR57BL/6 mice, obtained from Charles River Laboratories, Wilmington, Mass., USA, or on homozygous transgenic mice overexpressing human tau with the P301S mutation on a C57BL/6 background, originally developed by Michel Goedert (Xu et al. 2014), obtained by own breeding. Animals were kept at 23±1° C. under standard 12 h light-dark cycle with free access to food and water. They were handled according to the EU Council Directive 2010/63/EU, the Guide for the Care and Use of Laboratory Animals (National Research Council 2011) and the guidelines of the local institutional committee. The experiments were authorized by the local authority “Regierung von Oberbayern” under application number 55.2-1-54-2532-165-13.
5 mg of the PA compound CCT020312 (EMD Millipore, Billerica, Mass., USA) was first dissolved in 100 μl sterile DMSO (AppliChem, Darmstadt, Germany) and then diluted in sterile saline (B. Braun Medical, Melsungen, Germany) to achieve a stock solution of […].
For the efficacy trial in the late disease stage (Xu et al. 2014), P301S mice and wild type littermates received once daily i.p. injections of 2 mg/kg CCT020312 or saline from 17 to 22 weeks of age (n=12 for CCT020312 treated P301S mice, n=9 for other groups); they were analyzed with the Rotarod test in the 23rd week of age. […]

The subject of experiment [2] is LUHMES neurons overexpressing 4R-tau. The experiment is described as follows: MTT assay, LUHMES neurons overexpressing 4R-tau. Conditions: lentiviral 4R-tau overexpression 10 days, co-administration of PERK modulator. Format: cell-based, human. How it is done:
Nunc™ Nunclon™ Delta 6-well (for protein and mRNA) or 48-well (for cell assays) plates (Thermo Fisher Scientific, Waltham, Mass., USA) were coated with 100 μg/ml poly-L-lysine (Sigma-Aldrich, St. Louis, Mo., USA) and 5 μg/ml fibronectin (Sigma-Aldrich). LUHMES (Lund Human Mesencephalic) cells, derived from human embryonic ventral mesencephalic cells by conditional immortalization (Tet-off v-myc over-expression) were seeded out in a concentration of 130,000 cells/cm^2 to achieve a confluence of 50%. […]
Concentrated lentiviral particles were titrated by transducing LUHMES cells with different dilutions at 6 hours after initiating differentiation. The lowest dilution at which at least 90% of cells expressed the transgene (as determined by immunohistochemistry of the cells fixed on day 2 post differentiation) was chosen for subsequent experiments. […]
Thiazolyl Blue Tetrazolium […] (Sigma Aldrich) was dissolved in sterile PBS to a concentration of 5 mg/ml. […] 100 μl from each well were transferred to a new 96-well plate and the absorbance was read with the FLUOstar Omega (BMG Labtech) platereader at a wavelength of 590 nm (reference wave length 630 nm). The data was analyzed using the MARS Data Analysis Software (BMG Labtech) and Prism 6.

Structures are written as SMILES. “Also recorded” adds a separate entry of the source.

With `CCN(CC)CCC(=O)N1N=C(c2c(-c3ccccc3)c3cc(Br)ccc3[nH]c2=O)CC1c1ccc(Br)cc1` (stereo not drawn) [CCT020312, 6-bromo-3-[5-(4-bromo-phenyl)-1-(3-diethylamino-propionyl)-4,5-dihydro-1H-pyrazol-3-yl]-4-phenyl-1H-quinolin-2-one], the “number of viable cells: toxicity of annonacin and 4R-tau overexpression” value in the experiment with LUHMES neurons is listed as “mitigated these effects”. The “Rotarod performance (latency to fall)” value in experiment [1] is on record as “significantly improved; also recorded: increased performance”. Besides, the “4R-specific toxicity in MTT assay” value in experiment [2] is “reduced significantly”.

(Values after patent publication US10369123B2, “Perk activator for the treatment of neurodegenerative diseases” (DEUTSCHES ZENTRUM FÜR NEURODEGENERATIVE ERKRANKUNGEN E.V. …, priority 2014, dated 2019).)
